How the values were obtained:
[1] = test system: native tau aggregates; assay: TAU radioligand in vitro displacement assay ([^3H]T808, autoradiography); assay type: binding; details: human AD brain sections; radioligand [^3H]T808 10 nM; cold compound 10 nM; 50 mM Tris pH 7.4, room temperature, 30 min
Description: (§1) FIG. 3 represents data from the TAU radioligand in vitro displacement assay described below. This in vitro binding assay assesses the affinity of compounds for native tau aggregates. The compounds are co-incubated with the well-established tau specific radioligand [^3H]T808 and the compound's displacement potency of [^3H]T808 binding is determined by in vitro autoradiography using human Alzheimer's disease (AD) brain sections.
as §1, with “This” for “FIG. 3 represents data from the TAU radioligand in vitro displacement assay described below. This”, “sections (see FIG. 3).” for “sections.”
AD human brains are purchased from Banner Sun Health Research Institute (Sun City, Ariz., USA). Pathological diagnosis of AD is made according to standard NIA-Reagan Institute criteria based on neuropathological data. The radioligand [^3H]T808 was synthesized in-house ([^3H]-2-[4-(2-Fluoro-ethyl)-piperidin-1-yl]-benzo[4,5]imidazo[1,2-a]pyrimidine, radiochemical purity 99.0%). As a reference cold T808 is used (2-[4-(2-Fluoro-ethyl)-piperidin-1-yl]-benzo[4,5]imidazo[1,2-a]pyrimidine). For the autoradiography FujiFilm Imaging Plates (BAS-IP TR 2025) are exposed to the sections and read with a FujiFilm IP reader (BAS-5000).
Ten μm thick human AD brain sections are generated with a cryostat (Leica CM3050) at −17° C. chamber temperature and −15° C. object temperature. Sections are transferred to Histobond+ microscope slides (Marienfeld Laboratory Glasware). After drying for 3 hours at room temperature the sections are stored at −20° C. The sections are incubated with the radioligand (10 nM) and the respective cold compound (at various concentrations) in 50 mM Tris buffer, pH 7.4 at room temperature for 30 min. After washing 3×10 min at 4° C. in 50 mM Tris buffer, pH 7.4 and 3 quick dips in H2O dist. at 4° C. the sections are dried at 4° C. for 3 h. The sections are placed in a FujiFilm Cassette (BAS 2025), exposed with an Imaging Plate for five days and afterwards scanned with a resolution of […].
The signal intensity (Dens-PSL/mm2) in the region of interest (ROI) of the autoradiogram is quantified with the software MCID analysis (version 7.0, Imaging Research Inc.). The specific binding (SB) of [^3H]T808 binding in absence or in presence of a compound is calculated by subtracting the non-specific binding signal in the white matter, thus yielding SB[3H]T808 only and SBcompound. The % displacement by the various compounds is calculated as following: % displacement=100−(SBcompund/SB[3H]T808 only)*100. Validation Data
In each experiment cold T808 is used as a positive internal control. […]

[2] = test system: tau aggregates; assay: Autoradiography of tritiated radioligands on human cortical AD brain sections; assay type: binding; details: Braak V staged AD patient
Description: FIG. 1 is an autoradiogram of [^3H]-2-(4-methoxyphenyl)imidazo[1,2-a]pyridin-7-amine (example 5) incubated with human cortical brain sections obtained from a Braak V staged AD patient. The radioligand concentration was 2.6 nM.
FIG. 2 is an autoradiogram of [^3H]-2-[4-(2-fluoroethoxy)phenyl]imidazo[1,2-a]pyridin-7-amine (example 6) incubated with human cortical brain sections obtained from a Braak V staged AD patient. The radioligand concentration was 2.5 nM.
FIGS. 1 and 2 represent autoradiograms of respectively [[^3H]-2-(4-methoxyphenyl)imidazo[1,2-a]pyridin-7-amine (example 5) and [^3H]-2-[4-(2-fluoroethoxy)phenyl]imidazo[1,2-a]pyridin-7-amine (example 6) incubated with human cortical brain sections obtained from a Braak V staged AD patient. The radioligand concentrations were 2.6 and 2.5 nM, respectively.

Chain of tau aggregates (P10636 623-695 limits assumed): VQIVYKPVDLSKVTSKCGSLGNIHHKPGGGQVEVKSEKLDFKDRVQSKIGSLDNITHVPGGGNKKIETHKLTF

% displacement of [^3H]T808 (10 nM) at 10 nM [1] | Molecule | further results
50% | Nc1ccn2cc(-c3ccc(OCCF)cc3)nc2c1 [Example 4, 2-[4-(2-Fluoroethoxy)phenyl]imidazo[1,2-a]pyridin-7-amine] | 
25% | Nc1ccn2cc(-c3ccc(OCCCF)cc3)nc2c1 [Example 3, 2-[4-(3-Fluoropropoxy)phenyl]imidazo[1,2-a]pyridin-7-amine] | 
 | [^3H]-2-(4-Methoxyphenyl)imidazo[1,2-a]pyridin-7-amine [Example 5] | autoradiogram staining pattern ([2]; radioligand concentration 2.6 nM (FIG. 1)): punctate staining of tau aggregates in a layered distribution pattern and a varying degree of non-specific binding in white matter
67% | COc1ccc(-c2cn3ccc(N)cc3n2)cc1 [Example 1, 2-(4-Methoxyphenyl)imidazo[1,2-a]pyridin-7-amine] | 
 | [^3H]-2-[4-(2-Fluoroethoxy)phenyl]imidazo[1,2-a]pyridin-7-amine [Example 6] | autoradiogram staining pattern ([2]; radioligand concentration 2.5 nM (FIG. 2)): punctate staining of tau aggregates in a layered distribution pattern and a varying degree of non-specific binding in white matter
51% | Nc1ccn2cc(-c3ccc(OCF)cc3)nc2c1 [Example 2, 2-(4-(Fluoromethoxy)phenyl)imidazo[1,2-a]pyridin-7-amine] | 

Source: patent US9957266B2, “Imidazo[1,2-a]pyridin-7-amine” (Hoffmann-La Roche Inc., priority 2013, dated 2018)
